Experiment [1] has as its system Mus musculus. In words: Gastroprotective activity in Swiss albino mouse assessed as reduction in HCl/EtOH-induced gastric lesions at 20 mg/kg, po dosed 50 mins before HCl/EtOH challenge measured after 1 hr relative to control. It is filed as functional. The conditions noted are these: Stomach.
Experiment [2] deals with Mus musculus. Description: Gastroprotective activity in Swiss albino mouse model of HCl/EtOH-induced ulcer assessed as lesion index at 20 mg/kg, po dosed 50 mins before HCl/EtOH challenge measured after 1 hr (reference value: 37.7 +/- 4.3 millimeter). It is filed as functional.

By inhibition in vivo is commonly meant the change of the read-out against control, counted positive when it falls. In the case of `CC(=O)OCC1=CC[C@]2(C)[C@H](OC(C)=O)C[C@]3(C(=O)O)[C@@H](C(C)C)CC[C@H]3[C@@H]2C=C1`, the inhibition in vivo at 20 mg/kg in the experiment with Mus musculus [1] worked out at 48%. Also, the UI in the experiment with Mus musculus [2] is on record as 19.6 mm.

On to `CC(=O)OCC1=CC[C@]2(C)CC[C@]3(C(=O)O)[C@@H](C(C)C)CC[C@H]3[C@@H]2C=C1`, for which, in the experiment on Mus musculus [1], the inhibition in vivo at 20 mg/kg turned out to be 43%. For the same compound, the UI with Mus musculus [2] was determined as 21.6 mm.

On to `CC(C)[C@H]1CC[C@H]2[C@@H]3C=CC(CO)=CC[C@]3(C)CC[C@]12C(=O)O`, for which the inhibition in vivo at 20 mg/kg in the experiment on Mus musculus [1] worked out at 59%. Also, in the experiment with Mus musculus [2], the UI is given as 15.4 mm.

Turning to `CC(C)[C@H]1CC[C@H]2[C@@H]3C=CC(CO)=CC[C@]3(C)[C@H](O)C[C@]12C(=O)O`, in the experiment with Mus musculus [1], the inhibition in vivo at 20 mg/kg is 69%. In addition, the UI with Mus musculus [2] is 11.8 mm.

On to `COC(=O)[C@]12C[C@@H](OC(C)=O)[C@@]3(C)CC=C(COC(C)=O)C=C[C@H]3[C@@H]1CC[C@@H]2C(C)C`, for which the inhibition in vivo at 20 mg/kg with Mus musculus [1] is 6%. Moreover, in the experiment on Mus musculus [2], the UI was 35.6 mm.

For `COC(=O)[C@]12CC[C@@]3(C)CC=C(COC(C)=O)C=C[C@H]3[C@@H]1CC[C@@H]2C(C)C`, in the experiment with Mus musculus [1], the inhibition in vivo at 20 mg/kg came out at 3%. In the experiment with Mus musculus [2], the UI was 36.8 mm.

On to `COC(=O)[C@]12C[C@@H](O)[C@@]3(C)CC=C(CO)C=C[C@H]3[C@@H]1CC[C@@H]2C(C)C`, for which the inhibition in vivo at 20 mg/kg with Mus musculus [1] was found to be 36%. Besides, the UI with Mus musculus [2] is on record as 24.3 mm.

`COC(=O)[C@]12CC[C@@]3(C)CC=C(CO)C=C[C@H]3[C@@H]1CC[C@@H]2C(C)C`: the inhibition in vivo at 20 mg/kg in the experiment with Mus musculus [1] came to 18%. In addition, the UI in the experiment on Mus musculus [2] was found to be 31 mm.

For the compound `Cc1c(OCC(F)(F)F)ccnc1C[S+]([O-])c1nc2ccccc2[nH]1` (stereo not drawn) [LANSOPRAZOLE], the inhibition in vivo at 20 mg/kg with Mus musculus [1] turned out to be 57%. In addition, the UI with Mus musculus [2] is recorded as 16.1 mm.

Source of the values: ChEMBL document CHEMBL3813693, “Gastroprotective effects of new diterpenoid derivatives from Azorella cuatrecasasii Mathias & Constance obtained using a β-cyclodextrin complex with microbial and chemical transformations” (2016).
